Assay results taken from patent US7101868B2, “Substituted arylamine derivatives and methods of use” (Amgen Inc., priority 2001, dated 2006).

System: VEGF-stimulated HUVEC proliferation (Human Umbilical Vein Endothelial cells)
Assay: HUVEC Proliferation Assay
Type: cell-based
Settings: VEGF 50 ng/mL final, 72 h incubation, CyQuant fluorescent dye, read-out: inhibited VEGF-stimulated HUVEC proliferation at a level (IC50)
Protocol: Human Umbilical Vein Endothelial cells are purchased from Clonetics, Inc., as cryopreserved cells harvested from a pool of donors. These cells, at passage 1, are thawed and expanded in EBM-2 complete medium, until passage 2 or 3. The cells are trypsinized, washed in DMEM+10% FBS+antibiotics, and spun at 1000 rpm for 10 min. Prior to centrifugation of the cells, a small amount is collected for a cell count. After centrifugation, the medium is discarded, and the cells are resuspended in the appropriate volume of DMEM+10% FBS+antibiotics to achieve a concentration of 3×10^5 cells/mL. Another cell count is performed to confirm the cell concentration. The cells are diluted to 3×10^4 cells/mL in DMEM+10% FBS+antibiotics, and 100 μL of cells are added to a 96-well plate. The cells are incubated at 37° C. for 22 h.
Prior to the completion of the incubation period, compound dilutions are prepared. Five-point, five-fold serial dilutions are prepared in DMSO, at concentrations 400-fold greater than the final concentrations desired. 2.5 μL of each compound dilution are diluted further in a total of 1 mL DMEM+10% FBS+antibiotics (400× dilution). Medium containing 0.25% DMSO is also prepared for the 0 μM compound sample. At the 22-hour timepoint, the medium is removed from the cells, and 100 μL of each compound dilution is added. The cells are incubated at 37° C. for 2-3 h.
During the compound pre-incubation period, the growth factors are diluted to the appropriate concentrations. Solutions of DMEM+10% FBS+antibiotics, containing either VEGF or bFGF at the following concentrations: 50, 10, 2, 0.4, 0.08, and 0 ng/mL are prepared. For the compound-treated cells, solutions of VEGF at 550 ng/mL or bFGF at 220 ng/mL for 50 ng/mL or 20 ng/mL final concentrations, respectively, are prepared since 10 μL of each will be added to the cells (110 μL final volume). At the appropriate time after adding the compounds, the growth factors are added. VEGF is added to one set of plates, while bFGF is added to another set of plates. For the growth factor control curves, the media on wells B4-G6 of plates 1 and 2 are replaced with media containing VEGF or bFGF at the varying concentrations (50-0 ng/mL). The cells are incubated at 37° C. for an additional 72 h.
At the completion of the 72 h incubation period, the medium is removed, and the cells are washed twice with PBS. After the second wash with PBS, the plates are tapped gently to remove excess PBS, and the cells are placed at −70° C. for at least 30 min. The cells are thawed and analyzed using the CyQuant fluorescent dye (Molecular Probes C-7026), following the manufacturer's recommendations. The plates are read on a Victor/Wallac 1420 workstation at 485 nm/530 nm (excitation/emission). Raw data are collected and analyzed using a 4-parameter fit equation in XLFit. IC50 values are then determined.

**Q.** For `CCC(C)c1ccc(NC(=O)c2cccnc2NCc2ccc(F)cc2)cc1` (centres unmarked) [Example 16, N-(4-sec-butylphenyl)-2-[(4-fluorobenzyl)amino]nicotinamide], which IC50 is on record?
**A.** < 50 nM

**Q.** Which IC50 does the source give for `CC(C)(C)c1ccc(NC(=O)c2cccnc2NCc2ccc(F)cc2)cc1` [Example 17, N-(4-tert-Butylphenyl)-2-[(4-fluorobenzyl)amino]nicotinamide] here?
**A.** < 50 nM

**Q.** For `CC(C)c1ccc(NC(=O)c2cccnc2NCc2ccc(F)cc2)cc1` [Example 20, (2-{[(4-Fluorophenyl)methyl]amino}(3-pyridyl))-N-[4-(methylethyl)phenyl]carboxamide], which IC50 is on record?
**A.** < 50 nM

**Q.** `O=C(Nc1cccc(C(F)(F)F)c1)c1cccnc1NCc1ccc(F)cc1` [Example 21, (2-{[(4-Fluorophenyl)methyl]amino}(3-pyridyl))-N-[3-(trifluoromethyl)phenyl]carboxamide] was tested. Which IC50 did it give?
**A.** < 50 nM

**Q.** With `O=C(Nc1cccc(C(F)(F)F)c1)c1cccnc1NCc1ccc(Br)cc1` [Example 25, (2-{[(4-Bromophenyl)methyl]amino}(3-pyridyl))-N-[3-(trifluoromethyl)phenyl]carboxamide] as the compound, how does the IC50 read?
**A.** < 50 nM

**Q.** How did the IC50 turn out when `O=C(Nc1cccc(C(F)(F)F)c1)c1cccnc1NCc1ccc(Cl)cc1` [Example 26, (2-{[(4-Chlorophenyl)methyl]amino}(3-pyridyl))-N-[3-(trifluoromethyl)phenyl]carboxamide] was run?
**A.** < 50 nM

**Q.** How did the IC50 turn out when `O=C(Nc1cccc(C(F)(F)F)c1)c1cccnc1NCc1ccc(F)cc1F` [Example 27, (2-{[(2,4-Difluorophenyl)methyl]amino}(3-pyridyl))-N-[3-(trifluoromethyl)phenyl]carboxamide] was run?
**A.** < 50 nM

**Q.** For `O=C(Nc1cccc(C(F)(F)F)c1)c1cccnc1NCc1ccc(F)c(F)c1` [Example 29, (2-{[(3,4-Difluorophenyl)methyl]amino}(3-pyridyl))-N-[3-(trifluoromethyl)phenyl]carboxamide], which IC50 is on record?
**A.** < 50 nM

**Q.** `O=C(Nc1ccc(C(F)(F)F)cc1)c1cccnc1NCc1ccc(F)cc1` [Example 34, (2-{[(4-Fluorophenyl)methyl]amino}(3-pyridyl))-N-(4-(trifluoromethyl)phenyl]carboxamide] was tested. Which IC50 did it give?
**A.** < 50 nM

**Q.** How did the IC50 turn out when `CN(C)CCCc1cc(NC(=O)c2cccnc2NCc2ccc(F)cc2)cc(C(F)(F)F)c1` [Example 35, N-{3-[3-(Dimethylamino)propyl]-5-(trifluoromethyl)phenyl}(2-{[(4-fluorophenyl)methyl]amino}(3-pyridyl))carboxamide] was run?
**A.** < 50 nM

**Q.** For `CN1CC=C(c2cc(NC(=O)c3cccnc3NCc3ccc(F)cc3)ccc2C(C)(C)C)CC1` [Example 39], which IC50 is on record?
**A.** < 50 nM

**Q.** For `O=C(Nc1cccc(C(F)(F)F)c1)c1cccnc1NCc1ccc(F)c(C#CCN2CCOCC2)c1` [Example 40, [2-({[4-Fluoro-3-(3-morpholin-4-ylprop-1-ynyl)phenyl]methyl}amino)(3-pyridyl)]-N-[3-(trifluoromethyl)phenyl]carboxamide], which IC50 is on record?
**A.** < 50 nM

**Q.** How did the IC50 turn out when `O=C(Nc1ccc(Oc2ccccc2)cc1)c1cccnc1NCc1ccc2c(c1)OCO2` [Example 41, {2-[(2H-Benzo[d]1,3-dioxol-5-ylmethyl)amino](3-pyridyl)}-N-(4-phenoxyphenyl)carboxamide] was run?
**A.** < 50 nM

**Q.** Which IC50 does the source give for `O=C(Nc1ccc(C(F)(F)F)c(OCCN2CCCC2)c1)c1cccnc1NCc1ccc(F)cc1` [Example 42, 2-(4-Fluoro-benzylamino)-N-[3-(2-pyrrolidin-1-yl-ethoxy)-4-trifluoromethyl-phenyl]-nicotinamide] here?
**A.** < 50 nM

**Q.** Which IC50 does the source give for `CN1CCC(N2CC(C)(C)c3ccc(NC(=O)c4cccnc4NCc4ccc(F)cc4)cc32)CC1` [Example 45, N-[3,3-Dimethyl-1-(1-methyl-piperidin-4-yl)-2,3-dihydro-1H-indol-6-yl]-2-(4-fluoro-benzylamino)-nicotinamide] here?
**A.** < 50 nM

**Q.** Which IC50 does the source give for `CN(C)CC(=O)N1CC(C)(C)c2ccc(NC(=O)c3cccnc3NCc3ccc(F)cc3)cc21` [Example 46, N-[1-(2-Dimethylamino-acetyl)-3,3-dimethyl-2,3-dihydro-1H-indol-6-yl]-2-(4-fluoro-benzylamino)-nicotinamide] here?
**A.** < 50 nM

**Q.** How did the IC50 turn out when `CC(=O)N1CC(C)(C)Oc2ccc(NC(=O)c3cccnc3NCc3ccc(F)cc3)cc21` [Example 52, N-(4-Acetyl-2,2-dimethyl-3,4-dihydro-2H-benzo[1,4]oxazin-6-yl)-2-(4-fluoro-benzylamino)-nicotinamide] was run?
**A.** < 50 nM

**Q.** `O=C(Nc1ccc(C(F)(F)C(F)(F)F)c(OC[C@H]2CCCN2)c1)c1cccnc1NCc1ccc(F)cc1` [Example 54, (R) 2-(4-Fluoro-benzylamino)-N-[3-(pyrrolidin-2-ylmethoxy)-4-pentafluoroethyl-phenyl]-nicotinamide] was tested. Which IC50 did it give?
**A.** < 50 nM

**Q.** How did the IC50 turn out when `O=C(Nc1cc(OC[C@H]2CCCN2)cc(C(F)(F)F)c1)c1cccnc1NCc1ccc(F)cc1` [Example 55, (R) 2-(4-Fluoro-benzylamino)-N-[3-(pyrrolidin-2-ylmethoxy)-5-trifluoromethyl-phenyl]-nicotinamide] was run?
**A.** < 50 nM

**Q.** With `CC(C)(C)c1ccc(NC(=O)c2cccnc2NCc2ccc(F)cc2)cc1OCC1CCNCC1` [Example 56, N-[4-tert-Butyl-3-(piperidin-4-ylmethoxy)-phenyl]-2-(4-fluoro-benzylamino)-nicotinamide] as the compound, how does the IC50 read?
**A.** < 50 nM

**Q.** For `CC(C)(C)c1ccc(NC(=O)c2cccnc2NCc2ccc(F)cc2)cc1OC[C@H]1CCCN1` [Example 57, (R) N-[4-tert-Butyl-3-(pyrrolidin-2-ylmethoxy)-phenyl]-2-(4-fluoro-benzylamino)-nicotinamide], which IC50 is on record?
**A.** < 50 nM

**Q.** For `CC1(C)CNCc2cc(NC(=O)c3cccnc3NCc3ccc(F)cc3)ccc21` [Example 58, N-(4,4-Dimethyl-1,2,3,4-tetrahydro-isoquinolin-7-yl)-2-(4-fluoro-benzylamino)-nicotinamide], which IC50 is on record?
**A.** < 50 nM

**Q.** With `CC1(C)CN(C(=O)CN)c2cc(NC(=O)c3cccnc3NCc3ccc(F)cc3)ccc21` [Example 59, N-[1-(2-Amino-acetyl)-3,3-dimethyl-2,3-dihydro-1H-indol-6-yl]-2-(4-fluoro-benzylamino)-nicotinamide] as the compound, how does the IC50 read?
**A.** < 50 nM

**Q.** For `CC1(C)CN(C2CCNCC2)c2cc(NC(=O)c3cccnc3NCc3ccc(F)cc3)ccc21` [Example 60, N-(3,3-Dimethyl-1-piperidin-4-yl-2,3-dihydro-1H-indol-6-yl)-2-(4-fluoro-benzylamino)-nicotinamide], which IC50 is on record?
**A.** < 50 nM

**Q.** With `O=C(Nc1cc(OCC2CCNCC2)cc(C(F)(F)F)c1)c1cccnc1NCc1ccc(F)cc1` [Example 61, 2-(4-Fluoro-benzylamino)-N-[3-(piperidin-4-ylmethoxy)-5-trifluoromethyl-phenyl]-nicotinamide] as the compound, how does the IC50 read?
**A.** < 50 nM

**Q.** With `CC1(C)CNc2cc(NC(=O)c3cccnc3NCc3ccc(F)cc3)ccc2O1` [Example 62, N-(2,2-Dimethyl-3,4-dihydro-2H-benzo[1,4]oxazin-6-yl)-2-(4-fluoro-benzylamino)-nicotinamide] as the compound, how does the IC50 read?
**A.** < 50 nM

**Q.** With `CN1CCC[C@H]1COc1cc(NC(=O)c2cccnc2NCc2ccc(F)cc2)cc(C(F)(F)F)c1` [Example 63, (S)-2-(4-Fluoro-benzylamino)-N-[3-(1-methyl-pyrrolidin-2-ylmethoxy)-5-trifluoromethyl-phenyl]-nicotinamide] as the compound, how does the IC50 read?
**A.** < 50 nM

**Q.** Which IC50 does the source give for `CN1CCC(CN2CC(C)(C)c3ccc(NC(=O)c4cccnc4NCc4ccc(F)cc4)cc32)CC1` [Example 64, N-[3,3-Dimethyl-1-(1-methyl-piperidin-4-ylmethyl)-2,3-dihydro-1H-indol-6-yl]-2-(4-fluoro-benzylamino)-nicotinamide] here?
**A.** < 50 nM

**Q.** How did the IC50 turn out when `CN1CCC(C(C)(C)c2ccc(NC(=O)c3cccnc3NCc3ccc(F)cc3)cc2)CC1` [Example 65, 2-(4-Fluoro-benzylamino)-N-{4-[1-methyl-1-(1-methyl-piperidin-4-yl)-ethyl]-phenyl}-nicotinamide] was run?
**A.** < 50 nM
